Measurements reported in PubChem BioAssay AID2060487 (Molecular Pharmacology Branch, DTP, NCI, 2025).

System: 997537-175-T-J1-PDC complex spheroid viability
Experiment: Anticancer human tumor 997537-175-T-J1-PDC patient-derived colon adenocarcinoma cell line growth inhibition [GQUAD]
Settings: for IC50: curve of first compound; for viability, T/C: stronger effect = lower value
How it was run: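 Tumor cells were grown as complex spheroids with HUVEC endothelial cells and mesenchymal stem cells as stroma. G-quadruplex stabilizers were combined with targeted agents over half-log dilutions from near the clinical Cmax, or from 10 microM.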
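Further: spheroids exposed to the agents for 7 days.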
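Wherever viability, T/C is given: 100% = DMSO vehicle control viability.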

O=C(c1cc(Cc2n[nH]c(=O)c3ccccc23)ccc1F)N1CCN(C(=O)C2CC2)CC1 + Cc1cnc(CNC(=O)c2c(=O)c3ccc(N4CCCN(C)CC4)nc3n3c2sc2ccccc23)cn1 showed an IC50 (second compound 0.0316 µM) of over 10 µM, an IC50 (second compound 0.1 µM) of over 10 µM and an IC50 (second compound 0.316 µM) of over 10 µM. It also gave an IC50 (second compound 1 µM) of over 10 µM, an IC50 (second compound 3.16 µM) of over 10 µM and an IC50 (second compound 10 µM) of over 10 µM. The viability, T/C (second compound 0.0316 µM, first compound 0.0316 µM) was 95.5%, the viability, T/C (second compound 0.0316 µM, first compound 0.1 µM) was 87.9% and the viability, T/C (second compound 0.0316 µM, first compound 0.316 µM) was 88.9%. It also gave a viability, T/C (second compound 0.0316 µM, first compound 1 µM) of 85.1%, a viability, T/C (second compound 0.0316 µM, first compound 3.16 µM) of 82.4% and a viability, T/C (second compound 0.0316 µM, first compound 10 µM) of 102%. It also gave a viability, T/C (second compound 0.1 µM, first compound 0.0316 µM) of 92.3%, a viability, T/C (second compound 0.1 µM, first compound 0.1 µM) of 92.5% and a viability, T/C (second compound 0.1 µM, first compound 0.316 µM) of 82.1%. For the same compound, the viability, T/C (second compound 0.1 µM, first compound 1 µM) was 72.5%, the viability, T/C (second compound 0.1 µM, first compound 3.16 µM) was 85.8% and the viability, T/C (second compound 0.1 µM, first compound 10 µM) was 68.9%. The viability, T/C (second compound 0.316 µM, first compound 0.0316 µM) was 82%, the viability, T/C (second compound 0.316 µM, first compound 0.1 µM) was 96% and the viability, T/C (second compound 0.316 µM, first compound 0.316 µM) was 90.1%. The viability, T/C (second compound 0.316 µM, first compound 1 µM) was 99.8%, the viability, T/C (second compound 0.316 µM, first compound 3.16 µM) was 95.5% and the viability, T/C (second compound 0.316 µM, first compound 10 µM) was 93.8%. The viability, T/C (second compound 1 µM, first compound 0.0316 µM) was 85.6%, the viability, T/C (second compound 1 µM, first compound 0.1 µM) was 106% and the viability, T/C (second compound 1 µM, first compound 0.316 µM) was 105%. The viability, T/C (second compound 1 µM, first compound 1 µM) was 89.5%, the viability, T/C (second compound 1 µM, first compound 3.16 µM) was 97% and the viability, T/C (second compound 1 µM, first compound 10 µM) was 108%. For the same compound, the viability, T/C (second compound 3.16 µM, first compound 0.0316 µM) was 117%, the viability, T/C (second compound 3.16 µM, first compound 0.1 µM) was 108% and the viability, T/C (second compound 3.16 µM, first compound 0.316 µM) was 95.3%. The viability, T/C (second compound 3.16 µM, first compound 1 µM) was 84.4%, the viability, T/C (second compound 3.16 µM, first compound 3.16 µM) was 99% and the viability, T/C (second compound 3.16 µM, first compound 10 µM) was 89.5%. It also gave a viability, T/C (second compound 10 µM, first compound 0.0316 µM) of 103%, a viability, T/C (second compound 10 µM, first compound 0.1 µM) of 95.2% and a viability, T/C (second compound 10 µM, first compound 0.316 µM) of 106%. For the same compound, the viability, T/C (second compound 10 µM, first compound 1 µM) was 116%, the viability, T/C (second compound 10 µM, first compound 3.16 µM) was 95.9% and the viability, T/C (second compound 10 µM, first compound 10 µM) was 101%.
